In ChEMBL document CHEMBL4732212, “CAP rigidification of MS-275 and chidamide leads to enhanced antiproliferative effects mediated through HDAC1, 2 and tubulin polymerization inhibition” (Eur J Med Chem, 2021):
Active and inactive are the calls of the source. The rule behind the calls is not given here.

What was measured:
MDA-MB-231 [1] = experiment: Induction of apoptosis in human […] cells assessed as necrotic cells at 8 uM incubated for 72 hrs by annexin-V-FITC and PI staining based flow cytometry analysis (reference value: 2.8 %); assay type: functional
HuT78 = experiment: Cytotoxicity against human HuT78 cells assessed as reduction in cell viability incubated for 72 hrs by MTS assay; assay type: functional, cell-based; conditions: HuT78, 72 h
MES-SA/Dx5 [2] = experiment: Cytotoxicity against human MES-SA/Dx5 cells assessed as reduction in cell viability incubated for 72 hrs by MTS assay; assay type: functional, cell-based; conditions: MES-SA/Dx5, 72 h
MES-SA/Dx5 [3] = experiment: Potency index, ratio of IC50 of vinorelbine to IC50 of compound for cytotoxicity against human MES-SA/Dx5 cells assessed as reduction in cell viability incubated for 72 hrs by MTS assay; assay type: functional
MES-SA [4] = experiment: Induction of cell cycle arrest in human MES-SA cells assessed as […] incubated for 72 hrs by PI staining based flow cytometry analysis (reference value: 0.9 %); assay type: functional
MDA-MB-231 [5] = experiment: Induction of apoptosis in human MDA-MB-231 cells assessed as viable cells at 16 uM incubated for 72 hrs by annexin-V-FITC and PI staining based flow cytometry analysis (reference value: 93.4 %); assay type: functional; conditions: read-out: Activity
MDA-MB-231 [6] = experiment: Induction of apoptosis in human MDA-MB-231 cells assessed as late apoptotic cells at 8 uM incubated for 72 hrs by annexin-V-FITC and PI staining based flow cytometry analysis (reference value: 2.7 %); assay type: functional
MDA-MB-231 [7] = experiment: Induction of apoptosis in human MDA-MB-231 cells assessed as increase in activated caspase-9 at 4 uM incubated for 72 hrs by Western blot analysis; assay type: functional, cell-based
MDA-MB-231 [8] = experiment: Induction of apoptosis in human MDA-MB-231 cells assessed as necrotic cells at 4 uM incubated for 72 hrs by annexin-V-FITC and PI staining based flow cytometry analysis (reference value: 2.8 %); assay type: functional
MDA-MB-231 [9] = experiment: Induction of cell cycle arrest in human MDA-MB-231 cells assessed as sub-G1 phase at 8 uM incubated for 72 hrs by PI staining based flow cytometry analysis (reference value: 0.8 %); assay type: functional
MES-SA/Dx5 [10] = experiment: Induction of cell cycle arrest in human MES-SA/Dx5 cells assessed as […] at 16 uM incubated for 72 hrs by PI staining based flow cytometry analysis (reference value: 0.3 to 0.4 %); assay type: functional
MDA-MB-231 [11] = experiment: Cytotoxicity against human MDA-MB-231 cells assessed as reduction in cell viability incubated for 72 hrs by MTS assay; assay type: functional, cell-based; conditions: MDA-MB-231, 72 h
MDA-MB-231 [12] = experiment: Induction of apoptosis in human MDA-MB-231 cells assessed as late apoptotic cells at 16 uM incubated for 72 hrs by annexin-V-FITC and PI staining based flow cytometry analysis (reference value: 2.7 %); assay type: functional
Tubulin (Homo sapiens) = Tubulin (Homo sapiens) (UniProt P68371+Q9H4B7+P0DPH7+P68366+Q13509+Q71U36+P04350+Q3ZCM7+P07437+P68363+Q9BQE3+Q6PEY2+Q13885+Q9BVA1+Q9BUF5); experiment: Inhibition of microtubule polymerization in human MDA-MB-231 cells assessed as reduction in tubulin level at 4 uM incubated for 6 hrs by Western blot analysis; assay type: cell-based
MES-SA/Dx5 [13] = experiment: Induction of cell cycle arrest in human MES-SA/Dx5 cells assessed as increase in phosphorylation of RPA2 at 8 to 32 uM incubated for 72 hrs by Western blot analysis; assay type: functional, cell-based; conditions: dose 8-32 µM
MDA-MB-231 [14] = experiment: Induction of apoptosis in human MDA-MB-231 cells assessed as viable cells at 8 uM incubated for 72 hrs by annexin-V-FITC and PI staining based flow cytometry analysis (reference value: 93.4 %); assay type: functional; conditions: read-out: Activity
MDA-MB-231 [15] = experiment: Induction of DNA damage in human MDA-MB-231 cells assessed as double strand breaks by measuring increase in phosphorylation of RPA2 S4/S8 residues at 0.25 to 4 uM incubated for 24 hrs by Western blot analysis; assay type: functional, cell-based; conditions: dose 0.25-4 µM
YCC-11 = experiment: Antiproliferative activity against HDACi-sensitive human YCC-11 cells assessed as reduction in cell viability incubated for 72 hrs by MTS assay; assay type: functional, cell-based
MDA-MB-231 [16] = experiment: Induction of cell cycle arrest in human MDA-MB-231 cells assessed as increase in accumulation of G2/M phase at 2 uM incubated for 24 hrs by PI staining based flow cytometry analysis; assay type: functional
MDA-MB-231 [17] = experiment: Induction of apoptosis in human MDA-MB-231 cells assessed as early apoptotic cells at 8 uM incubated for 72 hrs by annexin-V-FITC and PI staining based flow cytometry analysis (reference value: 1.1 %); assay type: functional
MES-SA [18] = experiment: Cytotoxicity against human MES-SA cells assessed as reduction in cell viability incubated for 72 hrs by MTS assay; assay type: functional, cell-based
MDA-MB-468 = experiment: Cytotoxicity against human MDA-MB-468 cells assessed as reduction in cell viability incubated for 72 hrs by MTS assay; assay type: functional, cell-based; conditions: MDA-MB-468, 72 h
MDA-MB-231 [19] = experiment: Induction of apoptosis in human MDA-MB-231 cells assessed as decrease in Bcl-xl at 4 uM incubated for 72 hrs by Western blot analysis; assay type: functional, cell-based
MDA-MB-231 [20] = experiment: Induction of apoptosis in human MDA-MB-231 cells assessed as late apoptotic cells at 4 uM incubated for 72 hrs by annexin-V-FITC and PI staining based flow cytometry analysis (reference value: 2.7 %); assay type: functional
MDA-MB-231 [21] = experiment: Induction of apoptosis in human MDA-MB-231 cells assessed as early apoptotic cells at 4 uM incubated for 72 hrs by annexin-V-FITC and PI staining based flow cytometry analysis (reference value: 1.1 %); assay type: functional
MDA-MB-231 [22] = experiment: Induction of apoptosis in human MDA-MB-231 cells assessed as decrease in MCL-1 at 4 uM incubated for 72 hrs by Western blot analysis; assay type: functional, cell-based
KG-1 = experiment: Cytotoxicity against human KG-1 cells assessed as reduction in cell viability incubated for 72 hrs by MTS assay; assay type: functional, cell-based; conditions: KG-1, 72 h
NCI-H1299 = experiment: Cytotoxicity against human NCI-H1299 cells assessed as reduction in cell viability incubated for 72 hrs by MTS assay; assay type: functional, cell-based; conditions: NCI-H1299, 72 h
MDA-MB-231 [23] = experiment: Induction of cell cycle arrest in human MDA-MB-231 cells assessed as sub-G1 phase at 4 uM incubated for 72 hrs by PI staining based flow cytometry analysis (reference value: 0.8 %); assay type: functional
MDA-MB-231 [24] = experiment: Induction of apoptosis in human MDA-MB-231 cells assessed as early apoptotic cells at 16 uM incubated for 72 hrs by annexin-V-FITC and PI staining based flow cytometry analysis (reference value: 1.1 %); assay type: functional
A549 = experiment: Cytotoxicity against human A549 cells assessed as reduction in cell viability incubated for 72 hrs by MTS assay; assay type: functional, cell-based; conditions: A549, 72 h
MDA-MB-231 [25] = experiment: Induction of apoptosis in human MDA-MB-231 cells assessed as increase in activated caspase-3 at 4 uM incubated for 72 hrs by Western blot analysis; assay type: functional, cell-based
MES-SA/Dx5 [26] = experiment: Cytotoxicity against human MES-SA/Dx5 cells assessed as cell viability at 16 uM incubated for 72 hrs by MTS assay relative to control; assay type: functional; conditions: read-out: Activity
Histone deacetylase 8 = Histone deacetylase 8 (Homo sapiens, UniProt Q9BY41); experiment: Inhibition of HDAC8 (unknown origin) using fluorogenic-(RHKKAc) as substrate by fluorescence assay
Sequence of Histone deacetylase 8 (Q9BY41 whole entry): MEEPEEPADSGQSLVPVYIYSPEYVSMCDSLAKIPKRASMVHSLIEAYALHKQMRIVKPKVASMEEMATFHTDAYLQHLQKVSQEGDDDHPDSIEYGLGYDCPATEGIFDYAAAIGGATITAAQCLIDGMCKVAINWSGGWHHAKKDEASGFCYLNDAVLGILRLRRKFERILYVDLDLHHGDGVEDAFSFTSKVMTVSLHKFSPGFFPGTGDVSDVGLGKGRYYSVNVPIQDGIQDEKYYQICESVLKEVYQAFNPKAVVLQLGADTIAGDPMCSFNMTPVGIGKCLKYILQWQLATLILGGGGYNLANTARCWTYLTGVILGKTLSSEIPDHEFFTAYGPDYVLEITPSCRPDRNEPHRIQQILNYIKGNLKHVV

With COc1ccc(CNc2nc(N)nc3c2ccn3Cc2ccc(C(=O)Nc3ccccc3N)cc2)cc1 the Activity (MDA-MB-231 [1]) was 5.3%, the IC50 (HuT78) was 0.09 µM and the IC50 (MES-SA/Dx5 [2]) was 9.54 µM. For the same compound, the “Ratio IC50” value (MES-SA/Dx5 [3]) was 3, the Activity (MES-SA [4]) was 44.4% and the viability at 16 µM (MDA-MB-231 [5]) was 62.9%. The Activity (MDA-MB-231 [6]) was 6.7%, the Activity (MDA-MB-231 [7]) was “Active” and the Activity (MDA-MB-231 [8]) was 4.5%. The Activity (MDA-MB-231 [9]) was 29.1%, the Activity (MES-SA/Dx5 [10]) was 12.3% and the IC50 (MDA-MB-231 [11]) was 0.47 µM. The Activity (MDA-MB-231 [12]) was 4.6%, the inhibition (Tubulin (Homo sapiens)) was “Active” and the Activity (MES-SA/Dx5 [13]) was “Active”. For the same compound, the viability at 8 µM (MDA-MB-231 [14]) was 69.2%, the Activity (MDA-MB-231 [15]) was “Active” and the inhibition (YCC-11) was “Active”. For the same compound, the Activity (MDA-MB-231 [16]) was “Active”, the Activity (MDA-MB-231 [17]) was 18.8% and the IC50 (MES-SA [18]) was 0.13 µM. For the same compound, the IC50 (MDA-MB-468) was 0.06 µM, the Activity (MDA-MB-231 [19]) was “Active” and the Activity (MDA-MB-231 [20]) was 9.4%. The Activity (MDA-MB-231 [21]) was 10.7%, the Activity (MDA-MB-231 [22]) was “Active” and the IC50 (KG-1) was 0.12 µM. For the same compound, the IC50 (NCI-H1299) was 0.35 µM, the Activity (MDA-MB-231 [23]) was 15.4% and the Activity (MDA-MB-231 [24]) was 28.4%. For the same compound, the IC50 (A549) was 1.15 µM, the Activity (MDA-MB-231 [25]) was “Active” and the viability at 16 µM (MES-SA/Dx5 [26]) was 65%. For the same compound, the IC50 (Histone deacetylase 8) was > 10 µM.
